# Reference: the CheMixHub viscosity set
# Several values for one entry are separate records, joined by “and”; a condition that tells them apart may be missing. Equal entries are not always repeated. ± gives the uncertainty stated by the source.
# Assay: xn = mol fraction of the nth substance listed
compound,measurement,setting,value
O=C(O)c1ccccc1O + O,viscosity,"293.15 K, 100 kPa, x1 = 7.22e-05",1.008 ± 0.06 mPa·s
same,viscosity,"293.15 K, 100 kPa, x1 = 0.000108",1.011 ± 0.06 mPa·s
same,viscosity,"293.15 K, 100 kPa, x1 = 0.000143",1.013 ± 0.06 mPa·s
same,viscosity,"293.15 K, 100 kPa, x1 = 0.00018",1.015 ± 0.06 mPa·s
same,viscosity,"293.15 K, 100 kPa, x1 = 0.0002158",1.017 ± 0.06 mPa·s
same,viscosity,"293.15 K, 100 kPa, x1 = 0.0002516",1.019 ± 0.06 mPa·s
same,viscosity,"298.15 K, 100 kPa, x1 = 7.22e-05",0.896 ± 0.06 mPa·s
same,viscosity,"298.15 K, 100 kPa, x1 = 0.000108",0.899 ± 0.06 mPa·s
same,viscosity,"298.15 K, 100 kPa, x1 = 0.000143",0.901 ± 0.06 mPa·s
same,viscosity,"298.15 K, 100 kPa, x1 = 0.00018",0.902 ± 0.06 mPa·s
same,viscosity,"298.15 K, 100 kPa, x1 = 0.0002158",0.904 ± 0.06 mPa·s
same,viscosity,"298.15 K, 100 kPa, x1 = 0.0002516",0.906 ± 0.06 mPa·s
same,viscosity,"303.15 K, 100 kPa, x1 = 7.22e-05",0.803 ± 0.06 mPa·s
same,viscosity,"303.15 K, 100 kPa, x1 = 0.000108",0.806 ± 0.06 mPa·s
same,viscosity,"303.15 K, 100 kPa, x1 = 0.000143",0.807 ± 0.06 mPa·s
same,viscosity,"303.15 K, 100 kPa, x1 = 0.00018",0.809 ± 0.06 mPa·s
same,viscosity,"303.15 K, 100 kPa, x1 = 0.0002158",0.81 ± 0.06 mPa·s
same,viscosity,"303.15 K, 100 kPa, x1 = 0.0002516",0.812 ± 0.06 mPa·s
same,viscosity,"308.15 K, 100 kPa, x1 = 7.22e-05",0.725 ± 0.06 mPa·s
same,viscosity,"308.15 K, 100 kPa, x1 = 0.000108",0.727 ± 0.06 mPa·s
same,viscosity,"308.15 K, 100 kPa, x1 = 0.000143",0.729 ± 0.06 mPa·s
same,viscosity,"308.15 K, 100 kPa, x1 = 0.00018",0.73 ± 0.06 mPa·s
same,viscosity,"308.15 K, 100 kPa, x1 = 0.0002158",0.732 ± 0.06 mPa·s
same,viscosity,"308.15 K, 100 kPa, x1 = 0.0002516",0.733 ± 0.06 mPa·s
same,viscosity,"313.15 K, 100 kPa, x1 = 7.22e-05",0.659 ± 0.06 mPa·s
same,viscosity,"313.15 K, 100 kPa, x1 = 0.000108",0.661 ± 0.06 mPa·s
same,viscosity,"313.15 K, 100 kPa, x1 = 0.000143",0.662 ± 0.06 mPa·s
same,viscosity,"313.15 K, 100 kPa, x1 = 0.00018",0.664 ± 0.06 mPa·s
same,viscosity,"313.15 K, 100 kPa, x1 = 0.0002158",0.665 ± 0.06 mPa·s
same,viscosity,"313.15 K, 100 kPa, x1 = 0.0002516",0.666 ± 0.06 mPa·s
OC(O)C(Cl)(Cl)Cl + O,viscosity,"293.15 K, 101 kPa, x1 = 0.026",1.276 ± 0.22 mPa·s
same,viscosity,"293.15 K, 101 kPa, x1 = 0.0441",1.631 ± 0.32 mPa·s
same,viscosity,"293.15 K, 101 kPa, x1 = 0.06",1.841 ± 0.38 mPa·s
OC[C@@H](O)[C@@H](O)CO + O,viscosity,"293.15 K, 101.3 kPa, x1 = 0.01421",1.25 ± 0.08 mPa·s
same,viscosity,"293.15 K, 101.3 kPa, x1 = 0.02631",1.53 ± 0.09 mPa·s
same,viscosity,"293.15 K, 101.3 kPa, x1 = 0.03478",1.78 ± 0.11 mPa·s
same,viscosity,"293.15 K, 101.3 kPa, x1 = 0.0431",2.04 ± 0.12 mPa·s
same,viscosity,"293.15 K, 101.3 kPa, x1 = 0.05128",2.32 ± 0.14 mPa·s
same,viscosity,"303.15 K, 101.3 kPa, x1 = 0.003586",0.84 ± 0.05 mPa·s
same,viscosity,"303.15 K, 101.3 kPa, x1 = 0.007154",0.89 ± 0.05 mPa·s
same,viscosity,"303.15 K, 101.3 kPa, x1 = 0.01069",0.95 ± 0.06 mPa·s
same,viscosity,"303.15 K, 101.3 kPa, x1 = 0.01421",0.99 ± 0.06 mPa·s
same,viscosity,"303.15 K, 101.3 kPa, x1 = 0.0177",1.07 ± 0.06 mPa·s
same,viscosity,"303.15 K, 101.3 kPa, x1 = 0.02631",1.18 ± 0.07 mPa·s
same,viscosity,"303.15 K, 101.3 kPa, x1 = 0.03478",1.36 ± 0.08 mPa·s
same,viscosity,"303.15 K, 101.3 kPa, x1 = 0.0431",1.54 ± 0.09 mPa·s
same,viscosity,"303.15 K, 101.3 kPa, x1 = 0.05128",1.73 ± 0.1 mPa·s
same,viscosity,"313.15 K, 101.3 kPa, x1 = 0.007154",0.71 ± 0.04 mPa·s
same,viscosity,"313.15 K, 101.3 kPa, x1 = 0.01069",0.76 ± 0.05 mPa·s
same,viscosity,"313.15 K, 101.3 kPa, x1 = 0.01421",0.79 ± 0.05 mPa·s
same,viscosity,"313.15 K, 101.3 kPa, x1 = 0.0177",0.85 ± 0.05 mPa·s
same,viscosity,"313.15 K, 101.3 kPa, x1 = 0.02631",0.94 ± 0.06 mPa·s
same,viscosity,"313.15 K, 101.3 kPa, x1 = 0.03478",1.05 ± 0.06 mPa·s
same,viscosity,"313.15 K, 101.3 kPa, x1 = 0.0431",1.18 ± 0.07 mPa·s
same,viscosity,"313.15 K, 101.3 kPa, x1 = 0.05128",1.33 ± 0.08 mPa·s
same,viscosity,"323.15 K, 101.3 kPa, x1 = 0.003586",0.57 ± 0.03 mPa·s
same,viscosity,"323.15 K, 101.3 kPa, x1 = 0.007154",0.6 ± 0.04 mPa·s
same,viscosity,"323.15 K, 101.3 kPa, x1 = 0.01069",0.64 ± 0.04 mPa·s
same,viscosity,"323.15 K, 101.3 kPa, x1 = 0.01421",0.66 ± 0.04 mPa·s
same,viscosity,"323.15 K, 101.3 kPa, x1 = 0.0177",0.71 ± 0.04 mPa·s
same,viscosity,"323.15 K, 101.3 kPa, x1 = 0.02631",0.77 ± 0.05 mPa·s
same,viscosity,"323.15 K, 101.3 kPa, x1 = 0.03478",0.87 ± 0.05 mPa·s
same,viscosity,"323.15 K, 101.3 kPa, x1 = 0.0431",0.95 ± 0.06 mPa·s
same,viscosity,"323.15 K, 101.3 kPa, x1 = 0.05128",1.06 ± 0.06 mPa·s
OC[C@@H](O)[C@@H](O[C@H]1O[C@H](CO)[C@@H](O)[C@H](O)[C@H]1O)[C@H](O)[C@@H](O)CO + O,viscosity,"293.15 K, 100 kPa, x1 = 0.06986",60.3 ± 3.2 mPa·s
same,viscosity,"293.15 K, 101.3 kPa, x1 = 0.004",1.19 ± 0.05 mPa·s
same,viscosity,"293.15 K, 101.3 kPa, x1 = 0.007",1.45 ± 0.06 mPa·s
same,viscosity,"293.15 K, 101.3 kPa, x1 = 0.01",1.77 ± 0.07 mPa·s
same,viscosity,"293.15 K, 101.3 kPa, x1 = 0.018",2.6 ± 0.11 mPa·s
same,viscosity,"298.15 K, 100 kPa, x1 = 0.07553",62 ± 3 mPa·s
same,viscosity,"303.15 K, 100 kPa, x1 = 0.08206",64 ± 3.2 mPa·s
same,viscosity,"303.15 K, 101 kPa, x1 = 0.003592",0.9493 ± 0.016 mPa·s
same,viscosity,"303.15 K, 101.3 kPa, x1 = 0.004",0.92 ± 0.04 mPa·s
same,viscosity,"303.15 K, 101.3 kPa, x1 = 0.007",1.11 ± 0.05 mPa·s
same,viscosity,"303.15 K, 101.3 kPa, x1 = 0.01",1.34 ± 0.05 mPa·s
same,viscosity,"303.15 K, 101.3 kPa, x1 = 0.018",1.93 ± 0.08 mPa·s
same,viscosity,"308.15 K, 100 kPa, x1 = 0.08946",67 ± 3 mPa·s
same,viscosity,"313.15 K, 100 kPa, x1 = 0.09729",68 ± 6 mPa·s
same,viscosity,"313.15 K, 101.3 kPa, x1 = 0.004",0.75 ± 0.03 mPa·s
same,viscosity,"313.15 K, 101.3 kPa, x1 = 0.007",0.89 ± 0.04 mPa·s
same,viscosity,"313.15 K, 101.3 kPa, x1 = 0.01",1.05 ± 0.04 mPa·s and 1.27 ± 0.05 mPa·s
same,viscosity,"313.15 K, 101.3 kPa, x1 = 0.018",1.49 ± 0.06 mPa·s
same,viscosity,"318.15 K, 100 kPa, x1 = 0.1055",76 ± 4 mPa·s
same,viscosity,"323.15 K, 100 kPa, x1 = 0.1147",79 ± 5 mPa·s
same,viscosity,"323.15 K, 101 kPa, x1 = 0.003592",0.6401 ± 0.011 mPa·s
same,viscosity,"323.15 K, 101 kPa, x1 = 0.007153",0.7457 ± 0.013 mPa·s
same,viscosity,"323.15 K, 101.3 kPa, x1 = 0.004",0.62 ± 0.03 mPa·s
same,viscosity,"323.15 K, 101.3 kPa, x1 = 0.007",0.73 ± 0.03 mPa·s
same,viscosity,"323.15 K, 101.3 kPa, x1 = 0.01",0.86 ± 0.04 mPa·s and 1.05 ± 0.04 mPa·s
same,viscosity,"323.15 K, 101.3 kPa, x1 = 0.018",1.19 ± 0.05 mPa·s
